From patent US20240158447A1, “PEPTIDES FOR USE IN THE TREATMENT OR PREVENTION OF MYOCARDIAL DAMAGE” (THE UNIVERSITY OF WESTERN AUSTRALIA, priority 2020, published 2024)
“Also recorded” adds a separate entry of the source.

Tests used:
[1] = target: T1, L-type Ca^2+ channel β2 subunit (Homo sapiens, UniProt Q08289); test: Binding competition assay of variant peptides for the β2 subunit (AID-coated beads, heart lysate, SDS-PAGE); conditions: competition with bead-bound AID peptide, whole heart lysate, immunoblot densitometry; FIG. 2
T1 construct: from tissue; host or cells: whole heart (cardiac) lysate
T1 sequence (Q08289 whole entry): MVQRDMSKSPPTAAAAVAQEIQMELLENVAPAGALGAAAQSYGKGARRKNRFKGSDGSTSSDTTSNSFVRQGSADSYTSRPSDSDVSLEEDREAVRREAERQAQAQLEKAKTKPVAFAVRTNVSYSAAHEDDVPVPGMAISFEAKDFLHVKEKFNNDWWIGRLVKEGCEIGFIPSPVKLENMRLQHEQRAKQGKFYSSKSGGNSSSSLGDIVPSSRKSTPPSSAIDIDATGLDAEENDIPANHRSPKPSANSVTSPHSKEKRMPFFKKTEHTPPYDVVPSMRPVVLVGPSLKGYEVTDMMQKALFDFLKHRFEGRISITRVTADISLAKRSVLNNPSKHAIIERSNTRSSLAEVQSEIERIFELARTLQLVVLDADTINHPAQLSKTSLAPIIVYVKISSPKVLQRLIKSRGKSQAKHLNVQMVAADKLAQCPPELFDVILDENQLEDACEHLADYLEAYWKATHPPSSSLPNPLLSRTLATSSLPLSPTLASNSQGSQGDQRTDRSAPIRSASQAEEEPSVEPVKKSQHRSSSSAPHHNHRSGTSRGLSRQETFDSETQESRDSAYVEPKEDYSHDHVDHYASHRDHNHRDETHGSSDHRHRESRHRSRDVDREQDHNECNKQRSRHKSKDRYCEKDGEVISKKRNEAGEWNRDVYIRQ
Experimental: The affinity of each of the variant peptides to the β2 subunit was investigated through binding competition assays.
PureProteome™ NHS FlexiBind Magnetic Beads (Cat. #LSKMAGN04, Merck) were used following manufacturer recommendations. Aminohexanoic acid linked AID peptide was bound to the NHS flexibind magnetic beads at a concentration of more than 2 mg/mL to obtain saturation of the beads with peptide. Beads were first primed with an equilibration buffer (1 mM HCL) to prepare them for binding. The Ahx-AID peptide was dissolved in wash/coupling buffer (PBS, pH 7.4) and added to the beads. The beads-AID peptide mixture was left to mix uniformly on a multiplate shaker at a speed of 300 rpm at room temperature for 2 hours. To reduce non-specific binding the beads were incubated in Quench Buffer (100 mM Tris-HCl, 150 mM NaCl, pH 8.0) at room temperature for 1 hour.
The AID-peptide bound beads were split into 5 aliquots for the 5 samples prepared in Table 5. The whole heart lysate added to each of the peptide-bound beads to allow competitive binding for 2 hours at room temperature.
Upon completion, the conjugate was washed in coupling buffer, to remove unbound fraction. SDS sample buffer was added to the beads, with the tubes then heated for 5 minutes at 95° C. The eluted sample stored at −20° C. to be run through sodium dodecyl sulfate-polyacrymalide gel electrophoresis (SDS-PAGE) to determine the binding affinity of each of the variants.
The use of streptavidin dynabeads and biotinylated peptide was developed to improve the binding affinity assays. The peptide was initially biotinylated using EZ-link amine-PEG11-biotin (Spacer arm: 53.2 Å, Thermofisher Scientific, Cat. #26136) which was dissolved in 0.1M MES buffer ((2-N-morpholino)-ethanesulfonic acid) at a concentration of 1 mM. Just prior to the reaction, 0.1M EDC (N-(3-Dimethylaminopropyl)-N′-ethylcarbodiimide hydrochloride) was dissolved in MES buffer. In order to achieve complete biotinylation of the AID peptide, a 50× molar excess of biotin to peptide was required, with the total volumes of each component required shown in Table 6.
Each 78 μL aliquot of the biotinylated peptide shown in […] was enough for 6 reactions, covering the range of concentrations in which the heart lysate was again prepared with varying concentrations of the variant AID peptides according to Table 7.
The 78 μL aliquot of biotinylated AID-peptide was mixed with streptavidin dynabeads (1 mg Dynabeads per every 200 pmol biotinylated peptide) for half an hour at room temperature. The heart lysate ([…]) was incubated with the variant peptides at room temperature for 2 hours. After removing all unbound peptide from the beads, they were mixed with the pre-bound heart lysate for 2 hours at room temperature. The unbound fraction was removed. […]

[2] = system: wildtype cardiac myocytes; test: Mitochondrial flavoprotein oxidation after BayK(−), wildtype cardiac myocytes (Example 6); type: cell-based, mouse; conditions: wild type hearts, FIG. 4
Experimental: (§1) Adult male C57BL/6J mice were anesthetized with pentobarbitone sodium (240 mg/kg) via intraperitoneal injection prior to excision of the heart. Ventricular myocytes were isolated. Mouse hearts were cannulated onto a Langendorff apparatus via the aorta and perfused retrogradely with Krebs-Henseleit Buffer (KHB) containing (in mM): 120 NaCl, 25 NaHCO3, 4.8 KCl, 2.2 MgSO4, 1.2 NaH2PO4 and 11 glucose (pH=7.35 with O2/CO2 at 37° C.) for 4 min at 37° C. Hearts were then perfused with KHB supplemented with 2.4 mg/ml collagenase B for 3 min, then 8 min perfusion in the presence of 40 μM calcium. Following perfusion, aorta and atria were removed, and ventricles gently teased apart and triturated to dissociate myocytes into suspension. […]
(§2) All in vitro studies were performed in freshly isolated myocytes at 37° C. […] Following a 20 min incubation with 0.5-1 μM AID(S)-TAT, AID-TAT, peptide 6 or peptide 7, fluorescent signal of individual myocytes was quantified using Metamorph 6.3 to measure signal intensity of manually traced cell regions. […]
Autofluorescence was used to measure flavoprotein oxidation in cardiac myocytes based on previously described methods (480 nm ex, 535 nm em). […] Fluorescence was reported as a percentage from the baseline pre-treatment average.

[3] = system: wild type cardiac myocytes; test: Intracellular calcium (Fura-2) after H2O2 in cardiac myocytes; type: cell-based, mouse; conditions: 20 min incubation with 0.5-1 μM peptide; 30 μM H2O2 5 min; FIG. 3(a)
Experimental: as §1, with “calcium.” for “calcium. Following perfusion, aorta and atria were removed, and ventricles gently teased apart and triturated to dissociate myocytes into suspension.”
as §2
Intracellular calcium was monitored in cardiac myocytes using the fluorescent indicator Fura-2 AM (Fura-2, 1 μM, ex 340/380 nm, em 510 nm, Molecular Probes). […] Fluorescence at 340/380 nm excitation and 510 nm emission were measured at 1 minute intervals with an exposure of 50 ms before and after exposure to 30 μM H2O2 (5 min) and 10 U/ml catalase (5 min). Ratiometric 340/380 nm signal was quantified and reported as a percentage from the baseline pre-treatment average.

[4] = system: wild type cardiac myocytes; test: Intracellular superoxide (DHE) after H2O2 in cardiac myocytes; type: cell-based, mouse; conditions: 20 min incubation with 0.5-1 μM peptide; 30 μM H2O2 5 min; FIG. 3(b)
Experimental: as §1, §2
Superoxide generation was assessed in cardiac myocytes using the fluorescent indicator dihydroethidium (DHE, 5 μM, 515-560 nm ex filter, 590 long pass em, Merck). […] Fluorescence was reported as percentage change in the slope of the signal measured at 20-40 min (treatment) over 1-10 min (pre-treatment).

[5] = system: myocytes isolated from cTnI-G203S mutant mouse hearts; test: Mitochondrial flavoprotein oxidation after BayK(−), myocytes from HCM hearts (Example 6); type: cell-based; conditions: FIG. 5
Experimental: FIG. 5 presents the effect of mutant peptides on flavoprotein oxidation, a measure of metabolic activity and oxygen consumption in myocytes isolated from cTnI-G203S mutant mouse hearts that are hypertrophic.
All in vitro studies were performed in freshly isolated myocytes at 37° C. […] Following a 20 min incubation with 0.5-1 μM AID(S)-TAT, AID-TAT, peptide 6 or peptide 7, fluorescent signal of individual myocytes was quantified using Metamorph 6.3 to measure signal intensity of manually traced cell regions. An equivalent region not containing cells was used for background and was subtracted.
Autofluorescence was used to measure flavoprotein oxidation in cardiac myocytes based on previously described methods (480 nm ex, 535 nm em). Fluorescent images were taken at 1 min intervals with 1 s exposure before and after exposure to L-type Ca2+ channel agonist BayK(−). Fluorescence was reported as a percentage from the baseline pre-treatment average.

**Q.** Which “binding affinity (K0.5) for the target β2 subunit versus the original AID peptide” value [1] does the source give for QQQEEDLKGYLDWITQAE (Variant P7) here?
**A.** The value was “greater binding affinity (lower K0.5)”.

**Q.** And the “flavoprotein oxidation in comparison with AID-TAT peptide” value [2]?
**A.** The value was “statistically significant reduction in flavoprotein oxidation in comparison with AID-TAT peptide”.

**Q.** What about the “H2O2 induced increase in intracellular Ca2+ (Fura 2)” value [3] of the same sequence?
**A.** Its value is “altered the increase in Fura 2 following H2O2; also recorded: more effective at decreasing H2O2 induced increases in intracellular Ca^2+ (Fura 2) and superoxide production (DHE) than AID-TAT”.

**Q.** And the “H2O2 induced superoxide production (DHE)” value [4]?
**A.** The value was “more effective at decreasing H2O2 induced increases in intracellular Ca^2+ (Fura 2) and superoxide production (DHE) than AID-TAT”.

**Q.** And the “flavoprotein oxidation in comparison with AID-TAT peptide” value [5]?
**A.** The value was “statistically significant reduction in flavoprotein oxidation in comparison with AID-TAT peptide”.
